Measurements from article PMC4601027, “Structural Analysis of the Pin1-CPEB1 interaction and its potential role in CPEB1 degradation” (Scientific Reports, 2015).
Non-standard residues stand in square brackets, D forms with d. Residues, ends and D or L forms follow the SMILES beside them. pS = N[C@@H](COP(=O)(O)O)C(=O)O

Experiments:
[1] = target: T1, Pin1 WW domain (Uniprot: Q13526, Residues: 1–41) (Homo sapiens, UniProt Q13526); experiment: ITC titration of CPEB1 phosphopeptides with Pin1 WW domain; conditions: nano ITC calorimeter, 12 °C or 25 °C, 20 mM Tris-HCl pH 7.0, 130 mM NaCl, single binding site model, repeated at least twice
T1 construct: The Pin1 WW domain (Uniprot: Q13526, Residues: 1–41); His6 (N); GST (N); made in house
Excerpt: (§1) Pin1 interacts with phosphorylated CPEB1 in Xenopus oocytes, as well as in mammalian cells. […] Therefore, to mimic the in vivo scenario, we measured the affinities of the interactions between recombinant proteins (the isolated WW domain and also the full-length protein) with several peptides containing the phosphorylation sites within CPEB1. These peptides were synthesized using Fmoc Solid-Phase Peptide Synthesis (SPPS) (Supplementary Fig 2). […] All affinities were found in the low μM range (Fig. 2a,b), with the exception of the pS423 site of CPEB1, located in the linker region between the RRM domains, whose affinity was considerably lower than the rest. Our results reveal that the peptides containing pS184 and pS210—the latter known to be essential for CPEB degradation—display the best affinities for Pin1 in vitro. The affinity of the phosphorylation-dependent interaction was about 10-fold higher than that of the unphosphorylated CPEB N-terminal counterparts. In addition, in most of the peptides examined, similar binding affinities and stoichiometries (1:1) were observed using either the full-length Pin1 protein or the truncated WW domain. Only when analyzing the interaction of CPEB1 pS210 and the full-length Pin1 protein we obtained a stoichiometry below 1 (n = 0.85), which cannot be attributed to systematic errors in the determination of the protein concentration. This discrepancy might indicate that in addition to the main complex consisting of a 1:1 protein/peptide ratio, a small population with a 1:2 stoichiometry is also present in solution.
ITC measurements were performed using a nano ITC calorimeter (TA Instruments) at 12 °C or 25 °C. Protein samples were prepared in 20 mM Tris-HCl pH 7.0 and 130 mM NaCl. All samples were degassed and centrifuged prior to the experiments. Protein concentration was measured in a NanoDrop™ 2000 measuring the UV absorption at 280 nm. Peptide concentration was determined by amino acid analysis. […]

Pin1 full-length = target: T2, Pin1 full-length (Homo sapiens, UniProt Q13526); experiment: ITC titration of CPEB1 phosphopeptides with Pin1 full-length; format: binding; conditions: for Kd: nano ITC calorimeter, 12 °C or 25 °C, 20 mM Tris-HCl pH 7.0, 130 mM NaCl, repeated at least twice, for pS210 one Pin1 molecule could interact with two peptides, read-out: Pin1 FL KD
T2 construct: The full-length Pin1 clone was obtained from Addgene; His6 (N); provided by Dustin Maly's Lab
Excerpt: as §1
ITC measurements were performed using a nano ITC calorimeter (TA Instruments) at 12 °C or 25 °C. Protein samples were prepared in 20 mM Tris-HCl pH 7.0 and 130 mM NaCl. All samples were degassed and centrifuged prior to the experiments. Protein concentration was measured in a NanoDrop™ 2000 measuring the UV absorption at 280 nm. Peptide concentration was determined by amino acid analysis. Depending on the expected affinity, sigmoidal curves were optimized by injecting 10- to 15-fold concentrated peptide in 16 × 3 μL steps in a cell containing 190 μL of protein at an adjusted concentration of between 150 and 200 μM , stirring at 200 revolutions per minute (rpm). The delay between injections was set to be of 3 minutes. The NanoAnalyze software (TA Instruments) was used to determine the binding isotherms, assuming a single binding site in each molecule (except for the Pin1 full-length interaction with the CPEB1 pS210 peptide, where one Pin1 molecule could interact with two peptides). Baseline controls were acquired with buffer and pure peptide solutions. Measurements were repeated at least twice.

T1 sequence (Q13526 1-41): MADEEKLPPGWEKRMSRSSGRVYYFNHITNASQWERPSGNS
T2 sequence (Q13526 whole entry): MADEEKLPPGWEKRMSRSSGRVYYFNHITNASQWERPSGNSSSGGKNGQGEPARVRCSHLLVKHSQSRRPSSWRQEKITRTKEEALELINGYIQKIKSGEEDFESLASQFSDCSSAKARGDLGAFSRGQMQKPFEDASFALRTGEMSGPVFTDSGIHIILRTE

| SMILES | Kd [1] [µM] | Kd (Pin1 full-length) [µM] | stoichiometry (n), full-length Pin1 (Pin1 full-length; protein/peptide stoichiometry) |
| --- | --- | --- | --- |
| CSCC[C@H](NC(=O)[C@H](CO)NC(C)=O)C(=O)N[C@@H](CC(C)C)C(=O)N[C@@H](CC(N)=O)C(=O)N[C@@H](COP(=O)(O)O)C(=O)N1CCC[C@H]1C(=O)N[C@@H](CCSC)C(=O)NCC(=O)N[C@@H](CCCCN)C(N)=O [CPEB1 pS138] (Ac-SMLN[pS]PMGK-NH2; N-terminus assumed) | 71.3 ± 9.3 | 84.3 ± 10.6 | – |
| CC(=O)NCC(=O)N[C@@H](CCCCN)C(=O)N1CCC[C@H]1C(=O)N[C@@H](COP(=O)(O)O)C(=O)N1CCC[C@H]1C(=O)N[C@@H](CC(C)C)C(=O)NCC(=O)N[C@@H](Cc1ccccc1)C(=O)N[C@@H](CC(C)C)C(=O)N[C@H](C(N)=O)[C@@H](C)O [CPEB1 pS144] (Ac-GKP[pS]PLGFLT-NH2; N-terminus assumed) | 75.4 ± 12.7 | 83.5 ± 11.5 | – |
| CC[C@H](C)[C@H](NC(=O)[C@H](CCCNC(=N)N)NC(=O)[C@H](CC(C)C)NC(C)=O)C(=O)N[C@@H](COP(=O)(O)O)C(=O)N1CCC[C@H]1C(=O)N1CCC[C@H]1C(=O)N[C@@H](CC(C)C)C(=O)N[C@@H](Cc1c[nH]cn1)C(=O)N[C@@H](Cc1ccccc1)C(=O)N[C@@H](CC(C)C)C(=O)N1CCC[C@H]1C(=O)N[C@@H](CC(C)C)C(=O)NCC(=O)NCC(N)=O [CPEB1 pS210] (Ac-LRI[pS]PPLHFLPLGG-NH2; N-terminus assumed) | – | – | 0.85 |
| CC(=O)N[C@@H](C)C(=O)N[C@@H](C)C(=O)N[C@H](C(=O)N[C@H](C(=O)N[C@@H](COP(=O)(O)O)C(=O)N1CCC[C@H]1C(=O)N[C@@H](CC(C)C)C(=O)NCC(N)=O)C(C)C)[C@@H](C)O [CPEB1 pS248] (Ac-AATV[pS]PLG-NH2; N-terminus assumed) | 47.6 ± 7.6 | 42.4 ± 8.7 | – |
